Results from publication PMC12073402, “A Selective MAP3K1 Inhibitor Facilitates Discovery of NPM1 as a Member of the Network” (Molecules, 2025).

Tests used:
Assay in all cases: KiNativ kinome profiling in PANC-1 lysate
Type in all cases: binding
GCK = molecular target: T1, GCK (Homo sapiens, UniProt Q12851)
T1 construct: we opted to conduct a kinome screen (KiNativ) in PANC-1 cell lysates; endogenous in cells; host or cells: PANC-1 cell lysate
Method in brief: (§1)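 PANC-1 lysates were incubated with 5 μM inhibitor or DMSO, then labeled with a desthiobiotin-ATP acyl-phosphate probe that biotinylates conserved kinase lysines. Tryptic peptides were streptavidin-enriched and quantified by LC-MS/MS, reported as % change in MS signal from duplicate treated and duplicate control samples.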

IKKe, TBK1 = conditions: 5 µM; Lys2; DIKPGNIMR
Method in brief: as §1

NEK2 = molecular target: T2, NEK2 (Homo sapiens, UniProt P51955); conditions: Lys2
T2 construct: endogenous in cells; host or cells: PANC-1 cell lysate
Method in brief: as §1

p38b = molecular target: T3, p38b (Homo sapiens, UniProt Q15759); conditions: Other
T3 construct: endogenous in cells; host or cells: PANC-1 cell lysate
Method in brief: as §1

GSK3A = molecular target: T4, GSK3A (Homo sapiens, UniProt P49840); conditions: Lys2
T4 construct: we opted to conduct a kinome screen (KiNativ) in PANC-1 cell lysates; endogenous in cells; host or cells: PANC-1 cell lysate
Method in brief: as §1

MST2 = molecular target: T5, MST2 (Homo sapiens, UniProt Q13188); conditions: Lys1
T5 construct: endogenous in cells; host or cells: PANC-1
Method in brief: as §1

SMG1 = molecular target: T6, SMG1 (Homo sapiens, UniProt Q96Q15); conditions: ATP
T6 construct: endogenous in cells; host or cells: PANC-1 cell lysate
Method in brief: as §1

MAP2K1, MAP2K2 = conditions: 5 µM
Method in brief: as §1

MELK = molecular target: T7, MELK (Homo sapiens, UniProt Q14680); conditions: Lys2
T7 construct: endogenous in cells; host or cells: PANC-1
Method in brief: as §1

MAP2K7 = molecular target: T8, MAP2K7 (Homo sapiens, UniProt O14733); conditions: Lys2
T8 construct: endogenous in cells; host or cells: PANC-1 cell lysate
Method in brief: as §1

PKCa, PKCg = conditions: 5 µM; Other; NLIPMDPNGLSDPYVKLK
Method in brief: as §1

Erk3 = molecular target: T9, Erk3 (Homo sapiens, UniProt Q16659); conditions: Lys2
T9 construct: endogenous in cells; host or cells: PANC-1 lysate
Method in brief: as §1

CaMK2g = molecular target: T10, CaMK2g (Homo sapiens, UniProt Q13555); conditions: Lys1
T10 construct: endogenous in cells; host or cells: PANC-1 cell lysate
Method in brief: as §1

NDR2 = molecular target: T11, NDR2 (Homo sapiens, UniProt Q9Y2H1)
T11 construct: endogenous in cells; host or cells: PANC-1 cell lysate
Method in brief: as §1

LKB1 = molecular target: T12, LKB1 (Homo sapiens, UniProt Q15831); conditions: Lys2
T12 construct: we opted to conduct a kinome screen (KiNativ) in PANC-1 cell lysates; endogenous in cells; host or cells: PANC-1 cell lysate
Method in brief: as §1

JAK3 domain2 = molecular target: T13, JAK3 domain2 (Homo sapiens, UniProt P52333); conditions: Lys1
T13 construct: we opted to conduct a kinome screen (KiNativ) in PANC-1 cell lysates; endogenous in cells; host or cells: PANC-1 cell lysate
Method in brief: as §1

PKD1, PKD2 = conditions: 5 µM; Lys2; NIVHCDLKPENVLLASADPFPQVK
Method in brief: as §1

PRP4 = molecular target: T14, PRP4 (Homo sapiens, UniProt Q13523); conditions: Lys2
T14 construct: endogenous in cells; host or cells: PANC-1 cell lysate
Method in brief: as §1

YES = molecular target: T15, YES (Homo sapiens, UniProt P07947); conditions: Lys1
T15 construct: endogenous in cells; host or cells: PANC-1 cell lysate
Method in brief: as §1

BARK1 = molecular target: T16, BARK1 (Homo sapiens, UniProt P25098); conditions: Lys2
T16 construct: endogenous in cells; host or cells: PANC-1 cell lysate
Method in brief: as §1

CK2a1 = molecular target: T17, CK2a1 (Homo sapiens, UniProt P68400); conditions: Protein Kinase Domain
T17 construct: endogenous in cells; host or cells: PANC-1 cell lysate
Method in brief: as §1

CDK10 = molecular target: T18, CDK10 (Homo sapiens, UniProt Q15131); conditions: Lys2
T18 construct: endogenous in cells; host or cells: PANC-1 cell lysate
Method in brief: as §1

DRAK1, DRAK2 = conditions: 5 µM; ATP Loop; GKFAVVR
Method in brief: as §1

PIK3C3 = molecular target: T19, PIK3C3 (Homo sapiens, UniProt Q8NEB9); conditions: ATP
T19 construct: endogenous in cells; host or cells: PANC-1 cell lysate
Method in brief: as §1

MER, TYRO3 = conditions: 5 µM; ATP Loop; KIYSGDYYR
Method in brief: as §1

ZC1/HGK = molecular target: T20, ZC1/HGK (Homo sapiens, UniProt O95819); conditions: Lys1
T20 construct: endogenous in cells; host or cells: PANC-1 cell lysate
Method in brief: as §1

JAK1 domain1 = molecular target: T21, JAK1 domain1 (Homo sapiens, UniProt P23458); conditions: ATP Loop
T21 construct: we opted to conduct a kinome screen (KiNativ) in PANC-1 cell lysates; endogenous in cells; host or cells: PANC-1 cell lysate
Method in brief: as §1

T19 sequence (Q8NEB9 whole entry): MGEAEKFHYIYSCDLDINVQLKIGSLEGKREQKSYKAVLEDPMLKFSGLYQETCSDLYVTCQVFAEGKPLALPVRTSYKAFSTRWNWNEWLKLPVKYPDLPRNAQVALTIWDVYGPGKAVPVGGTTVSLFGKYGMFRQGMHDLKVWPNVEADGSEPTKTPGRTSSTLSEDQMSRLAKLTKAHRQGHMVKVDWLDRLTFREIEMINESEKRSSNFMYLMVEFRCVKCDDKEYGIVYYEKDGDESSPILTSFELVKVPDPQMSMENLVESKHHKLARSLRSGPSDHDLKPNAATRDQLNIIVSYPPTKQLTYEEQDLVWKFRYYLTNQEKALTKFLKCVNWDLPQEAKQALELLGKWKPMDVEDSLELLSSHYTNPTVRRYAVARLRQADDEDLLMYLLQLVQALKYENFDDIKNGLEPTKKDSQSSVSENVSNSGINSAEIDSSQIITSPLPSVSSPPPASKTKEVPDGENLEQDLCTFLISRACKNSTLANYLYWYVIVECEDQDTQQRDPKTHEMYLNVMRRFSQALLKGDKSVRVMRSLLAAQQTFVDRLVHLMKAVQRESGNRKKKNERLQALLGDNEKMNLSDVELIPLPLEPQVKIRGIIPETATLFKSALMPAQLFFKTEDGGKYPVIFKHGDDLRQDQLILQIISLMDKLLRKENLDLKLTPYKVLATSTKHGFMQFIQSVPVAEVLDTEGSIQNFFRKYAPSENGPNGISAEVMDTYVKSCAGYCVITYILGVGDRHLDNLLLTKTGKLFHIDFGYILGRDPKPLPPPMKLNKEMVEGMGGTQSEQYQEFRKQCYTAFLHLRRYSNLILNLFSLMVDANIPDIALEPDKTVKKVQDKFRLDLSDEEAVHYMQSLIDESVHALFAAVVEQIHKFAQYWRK
T6 sequence (Q96Q15 whole entry): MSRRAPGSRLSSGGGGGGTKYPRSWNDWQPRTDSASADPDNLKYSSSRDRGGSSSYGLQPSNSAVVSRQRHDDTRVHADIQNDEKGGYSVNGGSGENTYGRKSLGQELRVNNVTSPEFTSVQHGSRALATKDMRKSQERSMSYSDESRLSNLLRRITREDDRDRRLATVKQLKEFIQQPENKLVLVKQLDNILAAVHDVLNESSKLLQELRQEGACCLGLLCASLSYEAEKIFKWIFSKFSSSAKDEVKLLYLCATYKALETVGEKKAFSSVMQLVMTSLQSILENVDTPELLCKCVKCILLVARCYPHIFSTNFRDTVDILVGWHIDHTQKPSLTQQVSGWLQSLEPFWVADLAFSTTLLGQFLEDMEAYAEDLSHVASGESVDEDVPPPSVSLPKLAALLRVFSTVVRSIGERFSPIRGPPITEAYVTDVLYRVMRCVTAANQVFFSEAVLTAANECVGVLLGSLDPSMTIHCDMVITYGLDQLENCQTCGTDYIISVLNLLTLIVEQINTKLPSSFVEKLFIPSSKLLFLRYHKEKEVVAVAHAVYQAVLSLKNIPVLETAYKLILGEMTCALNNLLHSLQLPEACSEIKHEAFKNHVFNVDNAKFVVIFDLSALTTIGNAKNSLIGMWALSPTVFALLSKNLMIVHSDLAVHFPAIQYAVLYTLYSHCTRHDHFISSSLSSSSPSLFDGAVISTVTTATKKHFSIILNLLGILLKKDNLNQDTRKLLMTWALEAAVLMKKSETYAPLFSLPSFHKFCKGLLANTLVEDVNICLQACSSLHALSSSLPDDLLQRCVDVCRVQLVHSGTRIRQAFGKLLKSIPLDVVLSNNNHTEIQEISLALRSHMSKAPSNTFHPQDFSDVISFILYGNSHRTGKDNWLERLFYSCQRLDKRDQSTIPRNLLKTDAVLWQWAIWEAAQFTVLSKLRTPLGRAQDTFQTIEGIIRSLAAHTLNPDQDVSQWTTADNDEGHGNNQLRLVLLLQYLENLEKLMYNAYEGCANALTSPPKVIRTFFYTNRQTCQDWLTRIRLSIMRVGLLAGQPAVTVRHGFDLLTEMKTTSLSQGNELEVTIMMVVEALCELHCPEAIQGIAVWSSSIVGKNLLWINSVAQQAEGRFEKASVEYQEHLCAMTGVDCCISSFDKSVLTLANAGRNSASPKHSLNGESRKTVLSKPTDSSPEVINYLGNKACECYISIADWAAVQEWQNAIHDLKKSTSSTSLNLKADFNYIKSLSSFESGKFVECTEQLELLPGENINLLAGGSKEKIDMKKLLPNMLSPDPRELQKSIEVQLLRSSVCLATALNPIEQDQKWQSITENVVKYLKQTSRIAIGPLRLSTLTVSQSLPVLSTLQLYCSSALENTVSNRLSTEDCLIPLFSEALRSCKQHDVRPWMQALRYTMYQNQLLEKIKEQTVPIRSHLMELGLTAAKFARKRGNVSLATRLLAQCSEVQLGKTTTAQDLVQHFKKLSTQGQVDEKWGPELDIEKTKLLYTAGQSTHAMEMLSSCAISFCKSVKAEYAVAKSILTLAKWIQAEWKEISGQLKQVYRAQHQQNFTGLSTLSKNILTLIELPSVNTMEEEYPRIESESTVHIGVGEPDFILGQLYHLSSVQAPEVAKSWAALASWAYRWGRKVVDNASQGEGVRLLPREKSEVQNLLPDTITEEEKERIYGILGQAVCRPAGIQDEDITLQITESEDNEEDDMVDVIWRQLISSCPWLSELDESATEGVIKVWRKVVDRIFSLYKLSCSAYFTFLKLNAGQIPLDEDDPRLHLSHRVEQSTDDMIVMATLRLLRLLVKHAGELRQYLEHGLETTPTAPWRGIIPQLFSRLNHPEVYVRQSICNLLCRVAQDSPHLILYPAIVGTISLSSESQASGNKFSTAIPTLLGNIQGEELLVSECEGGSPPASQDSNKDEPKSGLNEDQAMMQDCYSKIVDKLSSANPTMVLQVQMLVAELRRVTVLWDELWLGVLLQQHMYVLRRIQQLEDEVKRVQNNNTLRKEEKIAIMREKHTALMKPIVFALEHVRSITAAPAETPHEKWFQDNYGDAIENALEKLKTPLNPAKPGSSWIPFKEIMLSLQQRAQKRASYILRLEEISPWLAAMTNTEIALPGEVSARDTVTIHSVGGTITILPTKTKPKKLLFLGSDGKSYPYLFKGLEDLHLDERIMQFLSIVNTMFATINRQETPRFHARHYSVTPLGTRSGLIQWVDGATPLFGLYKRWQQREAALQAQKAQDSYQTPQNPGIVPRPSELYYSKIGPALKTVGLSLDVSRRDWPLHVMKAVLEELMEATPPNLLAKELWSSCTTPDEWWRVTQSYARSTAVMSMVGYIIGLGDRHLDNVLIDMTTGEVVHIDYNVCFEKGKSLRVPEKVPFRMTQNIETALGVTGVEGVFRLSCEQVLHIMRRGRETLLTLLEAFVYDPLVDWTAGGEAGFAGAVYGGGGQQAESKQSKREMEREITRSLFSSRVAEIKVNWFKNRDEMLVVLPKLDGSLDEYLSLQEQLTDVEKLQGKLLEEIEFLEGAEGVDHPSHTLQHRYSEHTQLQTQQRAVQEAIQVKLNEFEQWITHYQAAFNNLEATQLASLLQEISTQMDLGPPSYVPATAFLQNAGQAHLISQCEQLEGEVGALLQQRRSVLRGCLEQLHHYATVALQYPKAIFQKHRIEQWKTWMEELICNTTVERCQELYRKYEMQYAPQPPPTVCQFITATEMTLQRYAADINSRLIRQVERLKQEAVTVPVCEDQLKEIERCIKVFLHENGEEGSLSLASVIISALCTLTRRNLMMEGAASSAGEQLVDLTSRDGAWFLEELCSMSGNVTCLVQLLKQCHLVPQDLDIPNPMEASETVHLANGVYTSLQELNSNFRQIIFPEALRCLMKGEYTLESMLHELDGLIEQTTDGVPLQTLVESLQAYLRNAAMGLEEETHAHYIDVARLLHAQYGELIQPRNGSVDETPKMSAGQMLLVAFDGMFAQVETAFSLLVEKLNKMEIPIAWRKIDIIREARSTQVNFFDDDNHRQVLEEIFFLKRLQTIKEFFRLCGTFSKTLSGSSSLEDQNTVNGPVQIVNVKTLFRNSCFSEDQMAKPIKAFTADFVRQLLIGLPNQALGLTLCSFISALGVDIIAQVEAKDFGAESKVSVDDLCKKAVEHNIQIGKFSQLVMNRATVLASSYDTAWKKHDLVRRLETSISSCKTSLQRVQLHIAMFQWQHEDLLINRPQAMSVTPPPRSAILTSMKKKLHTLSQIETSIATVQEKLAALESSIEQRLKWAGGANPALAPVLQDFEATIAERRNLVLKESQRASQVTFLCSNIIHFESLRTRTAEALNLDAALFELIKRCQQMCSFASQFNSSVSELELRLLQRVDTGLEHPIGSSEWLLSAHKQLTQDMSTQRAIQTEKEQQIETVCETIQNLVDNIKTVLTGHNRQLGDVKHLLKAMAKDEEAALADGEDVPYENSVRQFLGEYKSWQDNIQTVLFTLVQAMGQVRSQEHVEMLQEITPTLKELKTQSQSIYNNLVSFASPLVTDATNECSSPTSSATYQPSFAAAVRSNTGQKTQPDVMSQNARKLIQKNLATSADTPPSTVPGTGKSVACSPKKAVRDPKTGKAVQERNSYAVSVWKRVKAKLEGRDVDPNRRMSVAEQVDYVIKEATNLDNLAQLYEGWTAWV
T11 sequence (Q9Y2H1 whole entry): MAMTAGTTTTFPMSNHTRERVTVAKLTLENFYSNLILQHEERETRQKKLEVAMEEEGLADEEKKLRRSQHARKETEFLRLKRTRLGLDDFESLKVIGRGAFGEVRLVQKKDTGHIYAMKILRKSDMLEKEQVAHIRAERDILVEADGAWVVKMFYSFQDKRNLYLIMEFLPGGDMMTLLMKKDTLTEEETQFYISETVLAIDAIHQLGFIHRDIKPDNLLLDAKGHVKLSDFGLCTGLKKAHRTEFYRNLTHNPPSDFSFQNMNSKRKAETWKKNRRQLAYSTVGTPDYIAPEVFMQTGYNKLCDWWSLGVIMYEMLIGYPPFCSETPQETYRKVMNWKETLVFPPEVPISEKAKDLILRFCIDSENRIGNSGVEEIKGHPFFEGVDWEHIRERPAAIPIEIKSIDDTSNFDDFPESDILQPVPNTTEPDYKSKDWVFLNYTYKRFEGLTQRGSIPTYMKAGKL

Cn1cc(-c2cnc3ccc(NC(=O)Nc4ccc(F)c(C(F)(F)F)c4)cc3n2)cn1 [51-106, 1-(4-Fluoro-3-(trifluoromethyl)phenyl)-3-(3-(1-methyl-1H-pyrazol-4-yl)quinoxalin-6-yl)urea]
inhibition at 5 µM (GCK; Lys1, DTVTSELAAVKIVK): 18.3% | inhibition at 5 µM (GCK; Lys2, DIKGANLLLTLQGDVK): 3.9% | % Inhibition (IKKe, TBK1): 10.6% | inhibition at 5 µM (NEK2): ≤ 0% | inhibition at 5 µM (p38b): ≤ 0% | inhibition at 5 µM (GSK3A): ≤ 0% | inhibition at 5 µM (MST2): 0.8% | % Inhibition (SMG1; 5 µM, DTVTIHSVGGTITILPTKTKPK): NB (NB = No Binding (≤ 0)) | inhibition at 5 µM (SMG1; […]): ≤ 0% | % Inhibition (MAP2K1, MAP2K2; Lys1, KLIHLEIKPAIR): NB (NB = No Binding (≤ 0)) | % Inhibition (MAP2K1, MAP2K2; Lys2, DVKPSNILVNSR): 1.2% | inhibition at 5 µM (MELK): ≤ 0% | inhibition at 5 µM (MAP2K7): ≤ 0% | % Inhibition (PKCa, PKCg): NB (NB = No Binding (≤ 0)) | inhibition at 5 µM (Erk3): ≤ 0% | inhibition at 5 µM (CaMK2g): 7.1% | inhibition at 5 µM (NDR2; Lys1, DTGHIYAMKILR): ≤ 0% | inhibition at 5 µM (NDR2; Lys2, DIKPDNLLLDAK): 7.6% | inhibition at 5 µM (LKB1): ≤ 0% | inhibition at 5 µM (JAK3 domain2): 25.2% | % Inhibition (PKD1, PKD2): NB (NB = No Binding (≤ 0)) | inhibition at 5 µM (PRP4): ≤ 0% | inhibition at 5 µM (YES): 16% | inhibition at 5 µM (BARK1): 2.2% | inhibition at 5 µM (CK2a1): ≤ 0% | inhibition at 5 µM (CDK10): 10.3% | % Inhibition (DRAK1, DRAK2): 4.6% | inhibition at 5 µM (PIK3C3; TEDGGKYPVIFKHGDDLR): 4.9% | inhibition at 5 µM (PIK3C3; TEDGGKYPVIFKHGDDLRQDQLILQIISLMDK): ≤ 0% | % Inhibition (MER, TYRO3): NB (NB = No Binding (≤ 0)) | inhibition at 5 µM (ZC1/HGK): 3.1% | inhibition at 5 µM (JAK1 domain1): ≤ 0%
